A word on the IC50: it is the midpoint of a concentration-inhibition curve. The low end stands for greater potency in that assay, the high end for weaker potency in that assay.

The target in this assay is T1, BACE-1 enzyme (Homo sapiens, UniProt P56817).
T1 construct: purchased R & D Systems 931AS
Put plainly: BACE Fluorescence Resonance Energy Transfer (FRET) Assay. It is filed as biochemical. Particulars: pH 4-4.5, 30 min pre-incubation, about 1.5 hours reaction. As for the experimental part: BACE Fluorescence Resonance Energy Transfer (FRET) Assay
In the following assay, the proteolytic activity of BACE is measured by observing cleavage of a fluorescent group from a peptide substrate containing a rhodamine fluorescent donor and a quenching acceptor.
The inhibitory activity of compounds of Formula (I) may be compared to a statine derived control inhibitor STA200 (MP Biomedical Cat. #STA-200). The cleavage reaction occurs when a BACE-1 substrate (Invitrogen, Cat. #P2986) was added to a reaction mixture containing BACE-1 enzyme (R & D Systems, Cat. #931AS) and allowed to proceed for about 1.5 hours. Fluorescence, used as a marker of BACE activity, is monitored using 540 nm excitation and 585 nm emission wavelengths (Envision, Perkin Elmer).
A typical assay reaction contains BACE-1 enzyme—in assay buffer (50 mM sodium acetate, pH 4-4.5, 0.01% CHAPS (3-[(3-Cholamidopropyl)dimethylammonio]-1-propanesulfonate), 0.0125% TritonX-100, 0.006% EDTA) which is pre-incubated for 30 minutes with test compound in 7.5% DMSO. The reaction is initiated with the addition of BACE-1 substrate in assay buffer and allowed to proceed for about 1.5 hours at room temperature. Assays are conducted in black 384-well microtiter plates and scanned at room temperature using 540 nm excitation and 585 nm emission wavelengths.
In some instances, the percent inhibition at a given concentration is reported instead of the IC50.

SMILES strings stand for the structures.

T1 sequence (P56817 46-457 limits assumed): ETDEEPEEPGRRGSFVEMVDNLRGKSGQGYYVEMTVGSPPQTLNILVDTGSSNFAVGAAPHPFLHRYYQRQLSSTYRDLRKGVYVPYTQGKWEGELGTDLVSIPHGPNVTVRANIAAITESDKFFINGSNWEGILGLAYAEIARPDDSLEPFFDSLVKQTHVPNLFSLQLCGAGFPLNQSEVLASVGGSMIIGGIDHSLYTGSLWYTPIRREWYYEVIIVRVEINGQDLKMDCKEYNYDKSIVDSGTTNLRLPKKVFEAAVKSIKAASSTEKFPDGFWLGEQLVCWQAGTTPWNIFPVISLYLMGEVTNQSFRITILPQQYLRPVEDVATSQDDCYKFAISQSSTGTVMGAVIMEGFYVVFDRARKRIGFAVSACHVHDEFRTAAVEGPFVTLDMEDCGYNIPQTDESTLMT

In turn, `COc1cccc2nc(C(=O)Nc3nc4cc(-c5cccc(C(F)(F)F)c5)ccc4[nH]3)cn12` [Example 4, 5-Methoxy-imidazo[1,2-a]pyridine-2-carboxylic acid[5-(3-trifluoromethyl-phenyl)-1H-benzoimidazol-2-yl]-amide] came in with an IC50 of 0.51 µM.

In turn, `Cc1c(N2CC[C@@H](O)C2)ccc2nc(C(=O)Nc3nc4cc(-c5cc(F)cc(Cl)c5)ccc4[nH]3)cn12` [Example 5, 6-((R)-3-Hydroxy-pyrrolidin-1-yl)-5-methyl-imidazo[1,2-a]pyridine-2-carboxylic acid [5-(3-chloro-5-fluoro-phenyl)-1H-benzoimidazol-2-yl]-amide] returned an IC50 of 0.49 µM. This IC50 and that of the compound before are within 1.5-fold of each other.

On to `Cc1c(C#CC(C)(C)O)ccc2nc(C(=O)Nc3nc4cc(-c5cccc(C(F)(F)F)c5)ccc4[nH]3)cn12` [Example 6, 6-(3-Hydroxy-3-methyl-but-1-ynyl)-5-methyl-imidazo[1,2-a]pyridine-2-carboxylic acid [5-(3-trifluoromethyl-phenyl)-1H-benzoimidazol-2-yl]-amide], for which the IC50 turned out to be 0.25 µM.

In the case of `Cc1c(OCCO)ccc2nc(C(=O)Nc3nc4cc(-c5cccc(C(F)(F)F)c5)ccc4[nH]3)cn12` [Example 7, 6-(2-Hydroxy-ethoxy)-5-methyl-imidazo[1,2-a]pyridine-2-carboxylic acid [5-(3-trifluoromethyl-phenyl)-1H-benzoimidazol-2-yl]-amide], the IC50 came to 0.1 µM.

For `O=C(Nc1nc2cc(-c3cc(F)cc(Cl)c3)ccc2[nH]1)c1cn2c(N3CC[C@@H](O)C3)cccc2n1` [Example 8, 5-((R)-3-Hydroxy-pyrrolidin-1-yl)-imidazo[1,2-a]pyridine-2-carboxylic acid [5-(3-chloro-5-fluoro-phenyl)-1H-benzoimidazol-2-yl]-amide], it took 0.2 µM to reach half-maximal inhibition (IC50).

The compound `O=C(Nc1nc2cc(-c3cccc(Cl)c3)ccc2[nH]1)c1cn2cc(OCCO)ccc2n1` [Example 9, 6-(2-Hydroxy-ethoxy)-imidazo[1,2-a]pyridine-2-carboxylic acid [5-(3-chloro-phenyl)-1H-benzoimidazol-2-yl]-amide] came in with an IC50 of 0.3 µM.

On to `O=C(Nc1nc2cc(OCc3ccccc3)ccc2[nH]1)c1cn2cc(Cl)ccc2n1` [Example 13, 6-Chloro-imidazo[1,2-a]pyridine-2-carboxylic acid (5-benzyloxy-1H-benzoimidazol-2-yl)-amide], for which the concentration for half-maximal inhibition (IC50) is 0.08 µM.

With `Cc1cccn2cc(C(=O)Nc3nc4cc(OCc5ccccc5)ccc4[nH]3)nc12` [Example 14, 8-Methyl-imidazo[1,2-a]pyridine-2-carboxylic acid (5-benzyloxy-1H-benzoimidazol-2-yl)-amide], it took 0.12 µM to reach half-maximal inhibition (IC50). Against the preceding compound, the IC50 is about 1.5-fold higher.

With `O=C(Nc1nc2cc(OCc3ccc(Cl)cc3Cl)ccc2[nH]1)c1cn2cc(Cl)ccc2n1` [Example 15, 6-Chloro-imidazo[1,2-a]pyridine-2-carboxylic acid [5-(2,4-dichloro-benzyloxy)-1H-benzoimidazol-2-yl]-amide], 0.23 µM corresponded to half-maximal inhibition (IC50).

Compound `O=C(Nc1nc2cc(OCc3cc(F)cc(F)c3)ccc2[nH]1)c1cn2cc(Cl)ccc2n1` [Example 16, 6-Chloro-imidazo[1,2-a]pyridine-2-carboxylic acid [5-(3,5-difluoro-benzyloxy)-1H-benzoimidazol-2-yl]-amide] had an IC50 of 0.17 µM. This IC50 and that of the compound before are within 1.5-fold of each other.

For the compound `O=C(Nc1nc2cc(OCc3ccc(C(F)(F)F)cc3)ccc2[nH]1)c1cn2ccccc2n1` [Example 17, Imidazo[1,2-a]pyridine-2-carboxylic acid [5-(4-trifluoromethyl-benzyloxy)-1H-benzoimidazol-2-yl]-amide], 0.12 µM corresponded to half-maximal inhibition (IC50). The IC50 values of the last two compounds are within 1.5-fold of each other.

In the case of `O=C(Nc1nc2cc(OCc3cc(F)cc(Cl)c3)ccc2[nH]1)c1cn2cc(Cl)ccc2n1` [Example 19, 6-Chloro-imidazo[1,2-a]pyridine-2-carboxylic acid [5-(3-chloro-5-fluoro-benzyloxy)-1H-benzoimidazol-2-yl]-amide], the IC50 was 0.23 µM.

`O=C(Nc1nc2cc(OCc3ccc(Cl)c(Cl)c3)ccc2[nH]1)c1cn2cc(Cl)ccc2n1` [Example 20, 6-Chloro-imidazo[1,2-a]pyridine-2-carboxylic acid [5-(3,4-dichloro-benzyloxy)-1H-benzoimidazol-2-yl]-amide]: 0.25 µM corresponded to half-maximal inhibition (IC50).

With `O=C(Nc1nc2cc(OCc3ccc(C(F)(F)F)cc3)ccc2[nH]1)c1cn2cc(Cl)ccc2n1` [Example 21, 6-Chloro-imidazo[1,2-a]pyridine-2-carboxylic acid [5-(4-trifluoromethyl-benzyloxy)-1H-benzoimidazol-2-yl]-amide], the IC50 worked out at 0.14 µM. This IC50 lies about 1.8-fold lower than the previous one.

As for `Cc1cccn2cc(C(=O)Nc3nc4cc(OCc5ccc(C(F)(F)F)cc5)ccc4[nH]3)nc12` [Example 22, 8-Methyl-imidazo[1,2-a]pyridine-2-carboxylic acid [5-(4-trifluoromethyl-benzyloxy)-1H-benzoimidazol-2-yl]-amide], half-maximal inhibition (IC50) required 0.19 µM.

With `O=C(Nc1nc2cc(OCc3ccc(F)cc3F)ccc2[nH]1)c1cn2cc(Cl)ccc2n1` [Example 24, 6-Chloro-imidazo[1,2-a]pyridine-2-carboxylic acid [5-(2,4-difluoro-benzyloxy)-1H-benzoimidazol-2-yl]-amide], it took 0.13 µM to reach half-maximal inhibition (IC50).

`COc1cccc(-c2ccc3[nH]c(NC(=O)c4cn5c(C)cccc5n4)nc3c2)c1` [Example 25, 5-Methyl-imidazo[1,2-a]pyridine-2-carboxylic acid [5-(3-methoxy-phenyl)-1H-benzoimidazol-2-yl]-amide] yielded an IC50 of 0.1 µM.

Compound `Cc1cccn2cc(C(=O)Nc3nc4cc(-c5ccccc5)ccc4[nH]3)nc12` [Example 29, 8-Methyl-imidazo[1,2-a]pyridine-2-carboxylic acid (5-phenyl-1H-benzoimidazol-2-yl)-amide] registered an IC50 of 1.29 µM.

Take `Cc1cccc2nc(C(=O)Nc3nc4cc(OC5CCCC5)ccc4[nH]3)cn12` [Example 30, 5-Methyl-imidazo[1,2-a]pyridine-2-carboxylic acid (5-cyclopentyloxy-1H-benzoimidazol-2-yl)-amide]: the IC50 was determined as 4.15 µM.

Compound `Cc1cccn2cc(C(=O)Nc3nc4cc(OC5CCCC5)ccc4[nH]3)nc12` [Example 31, 8-Methyl-imidazo[1,2-a]pyridine-2-carboxylic acid (5-cyclopentyloxy-1H-benzoimidazol-2-yl)-amide] had an IC50 of 2.69 µM. This IC50 is about 1.5-fold lower than that of the compound before.

As to `Cc1cccn2cc(C(=O)Nc3nc4cc(OCc5ccc(OC(F)(F)F)cc5)ccc4[nH]3)nc12` [Example 33, 8-Methyl-imidazo[1,2-a]pyridine-2-carboxylic acid [5-(4-trifluoromethoxy-benzyloxy)-1H-benzoimidazol-2-yl]-amide], the IC50 came out at 1.36 µM.

In the case of `O=C(Nc1nc2cc(-c3cccc(C(F)(F)F)c3)ccc2[nH]1)c1cn2cc(Cl)ccc2n1` [Example 34, 6-Chloro-imidazo[1,2-a]pyridine-2-carboxylic acid [5-(3-trifluoromethyl-phenyl)-1H-benzoimidazol-2-yl]-amide], the IC50 was 2.53 µM.

In the case of `Cc1cccc2nc(C(=O)Nc3nc4cc(N5CCC(c6ccccc6)CC5)ccc4[nH]3)cn12` [Example 36, 5-Methyl-imidazo[1,2-a]pyridine-2-carboxylic acid [5-(4-phenyl-piperidin-1-yl)-1H-benzoimidazol-2-yl]-amide], the IC50 is 1.46 µM.

In turn, `Cc1cccn2cc(C(=O)Nc3nc4cc(N5CCC(c6ccccc6)CC5)ccc4[nH]3)nc12` [Example 37, 8-Methyl-imidazo[1,2-a]pyridine-2-carboxylic acid [5-(4-phenyl-piperidin-1-yl)-1H-benzoimidazol-2-yl]-amide] registered an IC50 of 1.8 µM. The IC50 values of the last two compounds are within 1.5-fold of each other.

Compound `Cc1cccc2nc(C(=O)Nc3nc4cc(-c5ccncc5)ccc4[nH]3)cn12` [Example 38, 5-Methyl-imidazo[1,2-a]pyridine-2-carboxylic acid (5-pyridin-4-yl-1H-benzoimidazol-2-yl)-amide] displayed an IC50 of 3.14 µM.

In turn, `COCCCOc1cccc(-c2ccc3[nH]c(NC(=O)c4cn5c(C)cccc5n4)nc3c2)c1` [Example 39, 5-Methyl-imidazo[1,2-a]pyridine-2-carboxylic acid {5-[3-(3-methoxy-propoxy)-phenyl]-1H-benzoimidazol-2-yl}-amide] had an IC50 of 1.32 µM.

The compound `Cc1cccc2nc(C(=O)Nc3nc4cc(-c5cccc(OC6CCCCC6)c5)ccc4[nH]3)cn12` [Example 40, 5-Methyl-imidazo[1,2-a]pyridine-2-carboxylic acid [5-(3-cyclohexyloxy-phenyl)-1H-benzoimidazol-2-yl]-amide] showed an IC50 of 2.55 µM.

On to `Cc1cccc2nc(C(=O)Nc3nc4cc(-c5cnn(C)c5)ccc4[nH]3)cn12` [Example 41, 5-Methyl-imidazo[1,2-a]pyridine-2-carboxylic acid [5-(1-methyl-1H-pyrazol-4-yl)-1H-benzoimidazol-2-yl]-amide], for which the IC50 is 3.06 µM. The IC50 values of the last two compounds are within 1.5-fold of each other.

`Cc1cccc2nc(C(=O)Nc3nc4cc(-c5cccc(N6CCOCC6)c5)ccc4[nH]3)cn12` [Example 44, 5-Methyl-imidazo[1,2-a]pyridine-2-carboxylic acid [5-(3-morpholin-4-yl-phenyl)-1H-benzoimidazol-2-yl]-amide] showed an IC50 of 4.37 µM.

On to `Cc1cccc2nc(C(=O)Nc3nc4cc(-c5cccc(F)c5)ccc4[nH]3)cn12` [Example 45, 5-Methyl-imidazo[1,2-a]pyridine-2-carboxylic acid [5-(3-fluoro-phenyl)-1H-benzoimidazol-2-yl]-amide], for which the IC50 was found to be 1.49 µM.
